In patent US12617767B2, “Crystalline forms of somatostatin modulators” (Crinetics Pharmaceuticals, Inc., priority 2019, dated 2026):
Marks after values point to notes of the source that are not given here. Each block holds one compound with its values, some of them ahead of it.

Columns and labels:
Format in all cases: physicochemical
[1] = Stability of XRPD pattern on drying; details: for XRPD pattern upon drying: dimesylate
Protocol: Short term slurries were carried out at two temperatures in 14 solvents. About 25 mg solid was added to a 2 mL vial followed by 0.70 mL of solvent. If all solids dissolved, more solid was added until a slurry was formed within reason. Slurries were stirred at constant temperature for four days (ambient temperature, 21-23° C.; or high temperature, 50° C.). After stirring for four days, solids were allowed to settle and were then recovered for XRPD analysis. XRPD analysis was performed on the wet cake, and if a new pattern was observed, the sample was dried in a vacuum oven at 50° C. for a minimum of 4 hours, then the dried sample was analyzed by XRPD.
Stability on Drying: A sample of Pattern B was prepared on an XRPD sample holder and analysed by XRPD to create a baseline. The disk was then left in a vacuum oven at 50° C. under static vacuum for 3 days. On the third day, the sample was removed from the oven and the “dry” pattern was recorded immediately.
(§1) Compound A⋅2MSA (Pattern A) was slurried in EtOH overnight at room temperature (ca. 16 hours). […] The bulk was dried in a vacuum oven at 50° C. under dynamic vacuum for 4.5 hours. The dried solids were removed from the oven and a “dry” XRPD analysis was collected.

[2] = Equilibrium solubility in simulated fluids and water at 37° C.; details: for comments / Concentration: 24 hrs; for Concentration: mg of Compound A (free base); for Concentration / pH (24 hr): dimesylate
Protocol: The solubility Compound A⋅2MSA, Patterns A, B and I, was measured in water, fasted state simulated gastric fluid (FaSSGF) and fasted state simulated intestinal fluid (FaSSIF) at 37° C. by slurrying in the respective media for 24 hours. 1.5 mL of the fluid was stirred at 37° C. About 5 mg of the specified solid was added to FaSSIF and a thin slurry was immediately formed. As a test, approximately 80 and 60 mg of Pattern A was added to 1.5 mL of water and FaSSGF, respectively without formation of a slurry. Therefore, about 10 mg of the desired Pattern was added to water and FaSSGF solutions. The samples were allowed to stir at 37° C. for 24 hrs. The stir bars were removed from the FaSSIF vials and the solids allowed to settle for 0.5 hours at 37° C. The supernatant/solutions were syringe filtered and recovered for analysis by HPLC as well as for pH measurement.

[3] = Dynamic Vapor Sorption (DVS); details: between 2% and 95% Relative Humidity (RH); dimesylate
Protocol: Dynamic Vapor Sorption (DVS) was done using a DVS Intrinsic 1. The sample is loaded into a sample pan and suspended from a microbalance. A typical sample mass for DVS measurement is 25 mg. Nitrogen gas bubbled through distilled water provides the desired relative humidity.
A typical measurement comprises the steps: • 1—Equilibrate at 50% RH • 2-50% to 2%. (50%, 40%, 30%, 20%, 10% and 2%) • a. Hold minimum of 5 mins and maximum of 240 minutes at each humidity. The pass criteria is less than 0.002% change • 3-2% to 95% (2%, 10%, 20%, 30%, 40%, 50%, 60%, 70%, 80%, 90%, 95%) • a. Hold minimum of 5 mins and maximum of 240 minutes at each humidity. The pass criteria is less than 0.002% change • 4-95% to 2% (95%, 80%, 70%, 60%, 50%, 40%, 30%, 20%, 10%, 2%) • a. Hold minimum of 5 mins and maximum of 240 minutes at each humidity. The pass criteria is less than 0.002% change • 5-2% to 50% (2%, 10%, 20%, 30%, 40%, 50%) • a. Hold minimum of 5 mins and maximum of 240 minutes at each humidity. The pass criteria is less than 0.002% change Dynamic Vapor Sorption Isotherm Plots of Solid Forms of Compound A⋅2MSA

[4] = Storage at ambient conditions (XRPD)
Protocol: Characterization after storage under ambient conditions: Pattern B was left at ambient conditions (21-22° C., 10-40% RH) for a week then characterized by)(RFD, TGA/DSC, and water content measured by Karl-Fischer titration. […] The water content was confirmed by KF titration which yielded a value of 4.20 wt. %.
Compound A⋅2MSA (Pattern A, 0.2622 g) was added to a 20 mL vial with a stir bar. Fifteen volumes (3.93 mL) of EtOH was added and the slurry was stirred overnight (˜20 hours). The slurry was sampled to confirm the correct pattern was generated, then the solids were collected by filtration. The resultant yellow solid was dried in a vacuum oven at 50° C. under dynamic vacuum for 2 hours, then under static vacuum overnight (˜16 hours) to yield 0.2015 g (77% yield). The in-situ sample drawn was dried for 3 hours then the solid was used for characterization by solution ^1H-NMR spectroscopy and simultaneous TGA/DSC. The bulk was dried overnight and used for stand-alone DSC, and thermal treatment.
as §1
Compound A⋅2MSA (Pattern A, 0.2659 g) was added to a 20 mL vial with a stir bar. Twenty-five volumes (6.65 mL) of ACN was added and the slurry was stirred overnight (˜20 hours). The slurry was sampled to confirm the correct pattern was generated, then the solids were collected by filtration. The resultant yellow solid was dried in a vacuum oven at 50° C. under dynamic vacuum for 2 hours, then under static vacuum overnight (˜16 hours) to yield 0.2255 g (85% yield). The sample drawn was dried for 3 hours then the solid was used for characterization by solution ^1H-NMR spectroscopy and simultaneous TGA/DSC. The bulk was dried overnight and used for stand-alone DSC.

[5] = Kinetic solubility studies in FaSSIF and FeSSIF; details: FeSSIF
Protocol: The solubility of the dimesylate (Pattern B) and mono-HCl salts of Compound A was determined in FaSSIF (pH 6.5) at 37° C. after a slurry time of 5, 20 and 40 minutes. FaSSIF was warmed to 37° C. and added to a vial of ca. 9 mg of the salt to mark t=0. The mixture was kept stirring at 37° C. and a sample drawn with a syringe at t+5, 20 and 40 minutes. The samples were syringe filtered and the filtrate was diluted 2× to ensure no precipitation while waiting for HPLC analysis. The pH of the solution collected at 40 minutes was measured. The slurry was sampled again the following day and the supernatant from syringe filtration was analyzed directly by HPLC without dilution. The same experiment was run with FeSSIF (pH 5.0).

[6] = solids from amorphous slurry or antisolvent experiments
[7] = solids from short term slurries, vacuum oven at 50° C., minimum of 4 hours

Compound: CS(=O)(=O)O.CS(=O)(=O)O.N#Cc1cccc(-c2ccc3ncc(-c4cc(F)cc(F)c4)c(N4CCC(N)CC4)c3c2)c1O [Pattern M, 3-(4-(4-aminopiperidin-1-yl)-3-(3,5-difluorophenyl)quinolin-6-yl)-2-hydroxybenzonitrile dimesylate]
XRPD pattern upon drying [1, 6]: lost crystallinity upon drying

Compound: CS(=O)(=O)O.CS(=O)(=O)O.N#Cc1cccc(-c2ccc3ncc(-c4cc(F)cc(F)c4)c(N4CCC(N)CC4)c3c2)c1O [Pattern N, 3-(4-(4-aminopiperidin-1-yl)-3-(3,5-difluorophenyl)quinolin-6-yl)-2-hydroxybenzonitrile dimesylate]
XRPD pattern upon drying [1, 6]: stable upon drying

Compound: CS(=O)(=O)O.CS(=O)(=O)O.N#Cc1cccc(-c2ccc3ncc(-c4cc(F)cc(F)c4)c(N4CCC(N)CC4)c3c2)c1O [Pattern F, 3-(4-(4-aminopiperidin-1-yl)-3-(3,5-difluorophenyl)quinolin-6-yl)-2-hydroxybenzonitrile dimesylate]
XRPD pattern upon drying [1, 7]: converted to Pattern I

Compound: CS(=O)(=O)O.CS(=O)(=O)O.N#Cc1cccc(-c2ccc3ncc(-c4cc(F)cc(F)c4)c(N4CCC(N)CC4)c3c2)c1O [Pattern E, 3-(4-(4-aminopiperidin-1-yl)-3-(3,5-difluorophenyl)quinolin-6-yl)-2-hydroxybenzonitrile dimesylate]
XRPD pattern upon drying [1, 7]: converted to Pattern A

Compound: CS(=O)(=O)O.CS(=O)(=O)O.N#Cc1cccc(-c2ccc3ncc(-c4cc(F)cc(F)c4)c(N4CCC(N)CC4)c3c2)c1O [Pattern A, 3-(4-(4-aminopiperidin-1-yl)-3-(3,5-difluorophenyl)quinolin-6-yl)-2-hydroxybenzonitrile dimesylate]
amount added to 1.5 mL without formation of a slurry ([2]; FaSSGF): ~60 mg
amount added to 1.5 mL without formation of a slurry ([2]; water): approximately 80 mg
reversible water uptake (DVS) [3]: 9.8 % w/w
XRPD pattern upon drying [1, 7]: stable upon drying

Compound: CS(=O)(=O)O.CS(=O)(=O)O.N#Cc1cccc(-c2ccc3ncc(-c4cc(F)cc(F)c4)c(N4CCC(N)CC4)c3c2)c1O [Pattern G, 3-(4-(4-aminopiperidin-1-yl)-3-(3,5-difluorophenyl)quinolin-6-yl)-2-hydroxybenzonitrile dimesylate]
XRPD pattern upon drying [1, 7]: converted to Pattern I

Compound: CS(=O)(=O)O.CS(=O)(=O)O.N#Cc1cccc(-c2ccc3ncc(-c4cc(F)cc(F)c4)c(N4CCC(N)CC4)c3c2)c1O [Pattern D, 3-(4-(4-aminopiperidin-1-yl)-3-(3,5-difluorophenyl)quinolin-6-yl)-2-hydroxybenzonitrile dimesylate]
XRPD pattern upon drying [1, 7]: converted to Pattern A

Compound: CS(=O)(=O)O.CS(=O)(=O)O.N#Cc1cccc(-c2ccc3ncc(-c4cc(F)cc(F)c4)c(N4CCC(N)CC4)c3c2)c1O [Pattern O, 3-(4-(4-aminopiperidin-1-yl)-3-(3,5-difluorophenyl)quinolin-6-yl)-2-hydroxybenzonitrile dimesylate]
XRPD pattern upon drying [1, 6]: stable upon drying

The next lines start with the values.

XRPD pattern upon drying [1, 7]: converted to Pattern I
Compound: CS(=O)(=O)O.CS(=O)(=O)O.N#Cc1cccc(-c2ccc3ncc(-c4cc(F)cc(F)c4)c(N4CCC(N)CC4)c3c2)c1O [Pattern H, 3-(4-(4-aminopiperidin-1-yl)-3-(3,5-difluorophenyl)quinolin-6-yl)-2-hydroxybenzonitrile dimesylate]

comments ([2]; FaSSGF (pH 1.70)): dissolved
Concentration ([2]; FaSSGF (pH 1.70), above calibration range): >7.75^b mg/mL
pH (24 hr) ([2]; FaSSGF (pH 1.70)): 1.84
comments ([2]; FaSSIF (pH 6.48)): disproportionated
Concentration ([2]; FaSSIF (pH 6.48)): 0.010 mg/mL
pH (24 hr) ([2]; FaSSIF (pH 6.48)): 6.06
comments ([2]; water): dissolved
Concentration ([2]; water, above calibration range): >6.59^b mg/mL
pH (24 hr) ([2]; water): 3.09
XRPD pattern upon drying [1, 7]: stable upon drying
XRPD pattern after drying ([1]; vacuum oven at 50° C. under dynamic vacuum for 4.5 hours): a combination of Patterns C and I
XRPD pattern of wet sample left at ambient conditions ([4]; 24 hours): did not change
XRPD pattern after storage at ambient conditions ([4]; bulk, 6 days at ambient conditions, dimesylate): a pattern resembling Pattern I
Compound: CS(=O)(=O)O.CS(=O)(=O)O.N#Cc1cccc(-c2ccc3ncc(-c4cc(F)cc(F)c4)c(N4CCC(N)CC4)c3c2)c1O [Pattern C, 3-(4-(4-aminopiperidin-1-yl)-3-(3,5-difluorophenyl)quinolin-6-yl)-2-hydroxybenzonitrile dimesylate]

solubility relative to the HCl salt [5]: 12 ×
Compound: CS(=O)(=O)O.CS(=O)(=O)O.N#Cc1cccc(-c2ccc3ncc(-c4cc(F)cc(F)c4)c(N4CCC(N)CC4)c3c2)c1O [Compound A⋅2MSA, 3-(4-(4-aminopiperidin-1-yl)-3-(3,5-difluorophenyl)quinolin-6-yl)-2-hydroxybenzonitrile dimesylate]
